In ChEMBL document CHEMBL3616373, “Identification of N-sulfonyl-tetrahydroquinolines as RORc inverse agonists” (Bioorg Med Chem Lett, 2015):

What was measured:
PBMC [1] = test: Cytotoxicity against human PBMC assessed as effect on cell physiology after 48 hrs by CellTiter-Glo assay; type: cell-based
[2] = Plasma protein binding in human at 5 uM after 4 hrs by equilibrium dialysis method; type: ADME, cell-free; details: read-out: PPB
[3] = molecular target: T1, Nuclear receptor subfamily 1 group I member 2 (Homo sapiens, UniProt O75469); test: Agonist activity at GAL4-fused human PXR expressed in HEK293 cells assessed as activation of basal transcriptional activity up to 10 uM after 20 hrs by dual-glo luciferase reporter gene assay; type: cell-based; details: hek293, 20 h
T1 sequence (O75469 whole entry): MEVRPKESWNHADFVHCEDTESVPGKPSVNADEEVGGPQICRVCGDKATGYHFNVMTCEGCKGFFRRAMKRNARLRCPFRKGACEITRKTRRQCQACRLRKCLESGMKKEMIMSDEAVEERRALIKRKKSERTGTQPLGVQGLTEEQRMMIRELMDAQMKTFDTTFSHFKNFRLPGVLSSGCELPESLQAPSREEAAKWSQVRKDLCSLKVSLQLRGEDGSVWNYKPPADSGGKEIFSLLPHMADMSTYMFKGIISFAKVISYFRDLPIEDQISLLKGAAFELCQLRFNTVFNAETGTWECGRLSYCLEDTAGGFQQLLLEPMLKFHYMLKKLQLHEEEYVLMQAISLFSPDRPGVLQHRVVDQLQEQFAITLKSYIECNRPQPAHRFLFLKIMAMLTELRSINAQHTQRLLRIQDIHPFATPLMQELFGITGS

[4] = Apparent permeability across apical to basolateral side in MDCK cells at 100 uM after 60 mins by HPLC analysis; type: ADME, cell-based, Canis lupus familiaris; details: dog
[5] = molecular target: T1, Nuclear receptor subfamily 1 group I member 2; test: Antagonist activity at GAL4-fused human PXR expressed in HEK293 cells assessed as inhibition of T0901317-stimulated transcriptional activity after 20 hrs by dual-glo luciferase reporter gene assay; type: cell-based
[6] = Apparent permeability across basolateral to apical side in MDCK cells at 100 uM after 60 mins by HPLC analysis; type: ADME, cell-based, Canis lupus familiaris; details: dog
PBMC [7] = test: Inhibition of IL-17 production in human PBMC after 48 hrs by Sandwich ELISA; type: functional, cell-based; details: for EC50: Homo sapiens, PBMC, 48 h
[8] = molecular target: T2, Oxysterols receptor LXR-beta (Homo sapiens, UniProt P55055); test: Antagonist activity at GAL4-fused human LXRbeta expressed in HEK293 cells assessed as inhibition of T0901317-stimulated transcriptional activity after 20 hrs by dual-glo luciferase reporter gene assay; type: cell-based
T2 sequence (P55055 whole entry): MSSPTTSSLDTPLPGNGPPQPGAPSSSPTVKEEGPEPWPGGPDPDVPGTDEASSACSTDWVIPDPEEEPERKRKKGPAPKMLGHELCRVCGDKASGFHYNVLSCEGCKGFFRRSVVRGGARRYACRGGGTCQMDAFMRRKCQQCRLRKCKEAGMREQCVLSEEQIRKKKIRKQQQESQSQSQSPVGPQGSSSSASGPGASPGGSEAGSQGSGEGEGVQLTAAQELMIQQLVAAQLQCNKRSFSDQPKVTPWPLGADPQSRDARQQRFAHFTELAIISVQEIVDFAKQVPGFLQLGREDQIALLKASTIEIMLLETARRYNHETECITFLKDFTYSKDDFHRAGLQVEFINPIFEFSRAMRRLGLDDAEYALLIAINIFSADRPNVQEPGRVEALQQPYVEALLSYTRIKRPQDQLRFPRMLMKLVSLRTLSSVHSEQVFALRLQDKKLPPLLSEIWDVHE

PBMC [9] = test: Inhibition of IFNgamma production in human PBMC after 48 hrs by Sandwich ELISA; type: functional, cell-based
MDCK = test: Efflux ratio of apparent permeability across apical to basolateral side over basolateral to apical side in MDCK cells at 100 uM after 60 mins by HPLC analysis; type: ADME, cell-based, Canis lupus familiaris; details: dog, 1 h
HEK293 [10] = test: Selectivity ratio of EC50 for GAL4-fused human RORb expressed in HEK293 cells to EC50 for GAL4-fused human RORc expressed in HEK293 cells; type: cell-based
HEK293 [11] = test: Selectivity ratio of EC50 for GAL4-fused human FXR expressed in HEK293 cells to EC50 for GAL4-fused human RORc expressed in HEK293 cells; type: cell-based
HEK293 [12] = test: Selectivity ratio of EC50 for GAL4-fused human PXR expressed in HEK293 cells to EC50 for GAL4-fused human RORc expressed in HEK293 cells; type: cell-based
[13] = molecular target: T3, Nuclear receptor ROR-gamma (Homo sapiens, UniProt P51449); test: Inverse agonist activity at N-terminal 6xHis-tagged human RORc ligand binding domain (241 to 486) expressed in bacterial expression system assessed as inhibition of SRC1 co-activator peptide recruitment after 3 hrs by TR-FRET analysis; type: functional
T3 sequence (P51449 whole entry): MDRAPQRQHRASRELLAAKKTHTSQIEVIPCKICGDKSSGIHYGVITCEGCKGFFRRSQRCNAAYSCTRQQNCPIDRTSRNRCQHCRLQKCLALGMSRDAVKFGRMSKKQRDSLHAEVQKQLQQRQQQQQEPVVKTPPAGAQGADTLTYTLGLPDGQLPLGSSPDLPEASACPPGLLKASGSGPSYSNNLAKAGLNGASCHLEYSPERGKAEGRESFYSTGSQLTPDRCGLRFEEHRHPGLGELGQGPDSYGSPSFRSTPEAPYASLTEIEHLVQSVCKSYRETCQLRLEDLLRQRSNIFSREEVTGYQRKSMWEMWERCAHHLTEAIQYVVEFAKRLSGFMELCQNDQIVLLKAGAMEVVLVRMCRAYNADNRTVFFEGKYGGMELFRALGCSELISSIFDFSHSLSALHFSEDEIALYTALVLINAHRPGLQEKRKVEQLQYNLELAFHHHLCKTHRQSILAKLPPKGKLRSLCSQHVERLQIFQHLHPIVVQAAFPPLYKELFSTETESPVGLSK

[14] = molecular target: Nuclear receptor ROR-alpha (→); test: Inverse agonist activity at GAL4-fused human RORa expressed in HEK293 cells assessed as suppression of basal transcriptional activity after 20 hrs by dual-glo luciferase reporter gene assay
[15] = molecular target: Nuclear receptor ROR-gamma; test: Inverse agonist activity at GAL4-fused human RORc expressed in HEK293 cells assessed as suppression of basal transcriptional activity after 20 hrs by dual-glo luciferase reporter gene assay
HEK293 [16] = test: Selectivity ratio of EC50 for GAL4-fused human LXRbeta expressed in HEK293 cells to EC50 for GAL4-fused human RORc expressed in HEK293 cells; type: cell-based
HEK293 [17] = test: Selectivity ratio of EC50 for GAL4-fused human RORa expressed in HEK293 cells to EC50 for GAL4-fused human RORc expressed in HEK293 cells; type: cell-based
HEK293 [18] = test: Selectivity ratio of EC50 for GAL4-fused human LXRalpha expressed in HEK293 cells to EC50 for GAL4-fused human RORc expressed in HEK293 cells; type: cell-based

Question: With `O=C(Nc1ccc2c(c1)N(S(=O)(=O)c1ccc(F)cc1)CCC2)c1c(F)cccc1Cl` as the compound, how does the EC50 (PBMC [1]) read?
Answer: The EC50 was > 20000 nM.

Question: And the fraction unbound at 4 h, 5 µM [2]?
Answer: Its fraction unbound at 4 h, 5 µM is < 0.01.

Question: What about the Activity [3] of the same compound?
Answer: The Activity was “Not Active”.

Question: And the Papp A→B at 1 h, 100 µM [4]?
Answer: Its Papp A→B at 1 h, 100 µM is 12 ×10⁻⁶ cm/s.

Question: What about the EC50 [5] of the same compound?
Answer: The EC50 was 820 nM.

Question: What about the Papp B→A at 1 h, 100 µM [6] of the same compound?
Answer: The Papp B→A at 1 h, 100 µM was 12 ×10⁻⁶ cm/s.

Question: What about the “%max” value (PBMC [7]) of the same compound?
Answer: Its value is 63%.

Question: And the EC50 (PBMC [7])?
Answer: The EC50 was 2100 nM.

Question: What about the EC50 [8] of the same compound?
Answer: The EC50 was 2600 nM.

Question: What about the EC50 (PBMC [9]) of the same compound?
Answer: Its EC50 is > 20000 nM.

Question: For `O=C(Nc1ccc2c(c1)N(S(=O)(=O)c1ccc(F)cc1)CCC2)c1ccccc1Cl`, which fraction unbound at 4 h, 5 µM [2] is on record?
Answer: The fraction unbound at 4 h, 5 µM was < 0.01.

Question: And the Activity [3]?
Answer: The Activity was “Not Active”.

Question: What about the Papp A→B at 1 h, 100 µM [4] of the same compound?
Answer: The Papp A→B at 1 h, 100 µM was 12 ×10⁻⁶ cm/s.

Question: And the EC50 [5]?
Answer: Its EC50 is 940 nM.

Question: And the Papp B→A at 1 h, 100 µM [6]?
Answer: Its Papp B→A at 1 h, 100 µM is 15 ×10⁻⁶ cm/s.

Question: What about the EC50 [8] of the same compound?
Answer: Its EC50 is 3800 nM.

Question: With `O=C(Nc1ccc2c(c1)N(S(=O)(=O)c1ccc(F)cc1)CC2)c1c(F)cccc1F` as the compound, how does the Ratio (MDCK) read?
Answer: The Ratio was < 2.

Question: What about the Ratio EC50 (HEK293 [10]) of the same compound?
Answer: Its Ratio EC50 is 28.

Question: And the Ratio EC50 (HEK293 [11])?
Answer: Its Ratio EC50 is 15.

Question: And the Ratio EC50 (HEK293 [12])?
Answer: The Ratio EC50 was 15.

Question: What about the EC50 [13] of the same compound?
Answer: The EC50 was 86 nM.

Question: What about the EC50 [14] of the same compound?
Answer: Its EC50 is 12000 nM.

Question: What about the fraction unbound at 4 h, 5 µM [2] of the same compound?
Answer: The fraction unbound at 4 h, 5 µM was < 0.01.

Question: And the EC50 [15]?
Answer: The EC50 was 280 nM.

Question: And the Ratio EC50 (HEK293 [16])?
Answer: The Ratio EC50 was 15.

Question: What about the Ratio EC50 (HEK293 [17]) of the same compound?
Answer: Its Ratio EC50 is 28.

Question: What about the Activity [3] of the same compound?
Answer: The Activity was “Not Active”.

Question: What about the Papp A→B at 1 h, 100 µM [4] of the same compound?
Answer: Its Papp A→B at 1 h, 100 µM is 16 ×10⁻⁶ cm/s.

Question: What about the Ratio EC50 (HEK293 [18]) of the same compound?
Answer: The Ratio EC50 was 15.

Question: What about the EC50 [5] of the same compound?
Answer: The EC50 was 4800 nM.

Question: And the Papp B→A at 1 h, 100 µM [6]?
Answer: Its Papp B→A at 1 h, 100 µM is 11 ×10⁻⁶ cm/s.

Question: And the EC50 [8]?
Answer: Its EC50 is 5700 nM.

Question: Which results are given for `O=C(Nc1ccc2c(c1)N(S(=O)(=O)c1ccc(F)cc1)CCC2)c1c(F)cccc1F`?
Answer: EC50 (PBMC [1]): > 20000 nM; fraction unbound at 4 h, 5 µM [2]: < 0.01; Activity [3]: Not Active; Papp A→B at 1 h, 100 µM [4]: 22 ×10⁻⁶ cm/s; EC50 [5]: 1100 nM; Papp B→A at 1 h, 100 µM [6]: 14 ×10⁻⁶ cm/s; %max (PBMC [7]): 78%; EC50 (PBMC [7]): 1400 nM; EC50 [8]: 3200 nM; EC50 (PBMC [9]): > 20000 nM
